Measurements from PubChem BioAssay AID248 (DTP/NCI, 2004).
Several values for one entry are separate records, joined by “and”; a condition that tells them apart may be missing. Identical values can stand only once. Inconclusive results and toxic doses are left out.

Test system: L1210 leukemia ip in BDF1 mice, survival T/C
Test: NCI In Vivo Anticancer Drug Screen. Data for tumor model L1210 Leukemia (intraperitoneal) in B6D2F1 (BDF1) mice
Details: higher = longer survival
In short: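 Survival endpoint. Drug-treated group vs vehicle group, expressed as T divided by C. Tumor passaged by transplantation.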

[1] = endpoint: mean survival time, dose: 25.0 mg/kg/injection, schedule: Q01DX009 (ip), vehicle: saline
[2] = endpoint: mean survival time, dose: 50.0 mg/kg/injection, schedule: Q01DX009 (ip), vehicle: saline
[3] = endpoint: mean survival time, dose: 100.0 mg/kg/injection, schedule: Q04DX003 (ip), vehicle: saline
[4] = endpoint: mean survival time, dose: 150.0 mg/kg/injection, schedule: Q01DX001 (ip), vehicle: saline
[5] = endpoint: mean survival time, dose: 100.0 mg/kg/injection, schedule: Q01DX009 (ip), vehicle: saline
[6] = endpoint: mean survival time, dose: 200.0 mg/kg/injection, schedule: Q01DX009 (ip), vehicle: saline
[7] = endpoint: mean survival time, dose: 200.0 mg/kg/injection, schedule: Q04DX003 (ip), vehicle: saline
[8] = endpoint: mean survival time, dose: 400.0 mg/kg/injection, schedule: Q04DX003 (ip), vehicle: saline

`CC1(C)C(=O)NC(=O)C1(C)C` was tested, and the T/C (endpoint: mean survival time, dose: 1.56 mg/kg/injection, schedule: Q03HX024 (ip), vehicle: saline) was 106 % of control, the T/C (endpoint: mean survival time, dose: 3.12 mg/kg/injection, schedule: Q03HX024 (ip), vehicle: saline) was 100 % of control and the T/C (endpoint: mean survival time, dose: 3.12 mg/kg/injection, schedule: Q04DX003 (ip), vehicle: saline) was 100 % of control. For the same molecule, the T/C (endpoint: mean survival time, dose: 4.12 mg/kg/injection, schedule: Q01DX009 (ip), vehicle: saline) was 100 % of control, the T/C (endpoint: mean survival time, dose: 6.25 mg/kg/injection, schedule: Q01DX009 (ip), vehicle: saline) was 106 % of control and the T/C (endpoint: mean survival time, dose: 6.25 mg/kg/injection, schedule: Q03HX024 (ip), vehicle: saline) was 101 % of control. For the same molecule, the T/C (endpoint: mean survival time, dose: 6.25 mg/kg/injection, schedule: Q04DX003 (ip), vehicle: saline) was 104 % of control, the T/C (endpoint: mean survival time, dose: 8.25 mg/kg/injection, schedule: Q01DX009 (ip), vehicle: saline) was 100 % of control and the T/C (endpoint: mean survival time, dose: 12.5 mg/kg/injection, schedule: Q01DX009 (ip), vehicle: saline) was 102 % of control. For the same molecule, the T/C (endpoint: mean survival time, dose: 12.5 mg/kg/injection, schedule: Q03HX024 (ip), vehicle: saline) was 100 % of control, the T/C (endpoint: mean survival time, dose: 12.5 mg/kg/injection, schedule: Q04DX003 (ip), vehicle: saline) was 104 % of control and 108 % of control and the T/C (endpoint: mean survival time, dose: 16.5 mg/kg/injection, schedule: Q01DX009 (ip), vehicle: saline) was 92 % of control. For the same molecule, the T/C (endpoint: mean survival time, dose: 18.75 mg/kg/injection, schedule: Q01DX001 (ip), vehicle: saline) was 105 % of control, the T/C [1] was 106 % of control and the T/C (endpoint: mean survival time, dose: 25.0 mg/kg/injection, schedule: Q04DX003 (ip), vehicle: saline) was 102 % of control and 105 % of control. For the same molecule, the T/C (endpoint: mean survival time, dose: 33.0 mg/kg/injection, schedule: Q01DX009 (ip), vehicle: saline) was 105 % of control, the T/C (endpoint: mean survival time, dose: 37.5 mg/kg/injection, schedule: Q01DX001 (ip), vehicle: saline) was 108 % of control and the T/C [2] was 102 % of control. For the same molecule, the T/C (endpoint: mean survival time, dose: 50.0 mg/kg/injection, schedule: Q04DX003 (ip), vehicle: saline) was 100 % of control and 102 % of control, the T/C (endpoint: mean survival time, dose: 66.0 mg/kg/injection, schedule: Q01DX009 (ip), vehicle: saline) was 90 % of control and the T/C (endpoint: mean survival time, dose: 75.0 mg/kg/injection, schedule: Q01DX001 (ip), vehicle: saline) was 108 % of control. For the same molecule, the T/C [3] was 94 % of control and the T/C [4] was 103 % of control.
In the case of `COc1cc(NS(=O)(=O)c2ccc(C)cc2)c2c(c1N)C(=O)c1ccccc1C2=O`, the T/C (endpoint: mean survival time, dose: 100.0 mg/kg/injection, schedule: Q01DX009 (ip), vehicle: saline with Tween-80) is reported as 105 % of control, the T/C (endpoint: mean survival time, dose: 100.0 mg/kg/injection, schedule: Q04DX003 (ip), vehicle: saline with Tween-80) is reported as 98 % of control and the T/C (endpoint: mean survival time, dose: 200.0 mg/kg/injection, schedule: Q01DX009 (ip), vehicle: saline with Tween-80) is reported as 94 % of control. The T/C (endpoint: mean survival time, dose: 200.0 mg/kg/injection, schedule: Q04DX003 (ip), vehicle: saline with Tween-80) was 98 % of control, the T/C (endpoint: mean survival time, dose: 400.0 mg/kg/injection, schedule: Q01DX009 (ip), vehicle: saline with Tween-80) was 100 % of control and the T/C (endpoint: mean survival time, dose: 400.0 mg/kg/injection, schedule: Q04DX003 (ip), vehicle: saline with Tween-80) was 93 % of control.
With `O=P1(NCCCl)OCCCN1CCCl` (centres undefined) the T/C (endpoint: mean survival time, dose: 12.5 mg/kg/injection, schedule: Q01DX001 (ip), vehicle: saline) was 101 % of control, the T/C (endpoint: mean survival time, dose: 25.0 mg/kg/injection, schedule: Q01DX001 (ip), vehicle: saline) was 116 % of control and 117 % of control and the T/C [1] was 155 % of control. For the same molecule, the T/C (endpoint: mean survival time, dose: 25.0 mg/kg/injection, schedule: Q07DX003 (ip), vehicle: saline) was 110 % of control, the T/C (endpoint: mean survival time, dose: 50.0 mg/kg/injection, schedule: Q01DX001 (ip), vehicle: saline) was 124 % of control and the T/C [2] was 160 % of control. The T/C (endpoint: mean survival time, dose: 50.0 mg/kg/injection, schedule: Q01DX009 (ip), vehicle: water) was 173 % of control, the T/C (endpoint: mean survival time, dose: 75.0 mg/kg/injection, schedule: Q07DX003 (ip), vehicle: saline) was 166 % of control and the T/C [5] was 260 % of control. The T/C (endpoint: mean survival time, dose: 100.0 mg/kg/injection, schedule: Q01DX009 (ip), vehicle: water) was 185 % of control, the T/C (endpoint: mean survival time, dose: 100.0 mg/kg/injection, schedule: Q07DX003 (ip), vehicle: saline) was 216 % of control and the T/C (endpoint: mean survival time, dose: 125.0 mg/kg/injection, schedule: Q07DX003 (ip), vehicle: saline) was 206 % of control. For the same molecule, the T/C [4] was 249 % of control, the T/C (endpoint: mean survival time, dose: 200.0 mg/kg/injection, schedule: Q01DX001 (ip), vehicle: saline) was 191 % of control and 221 % of control and 298 % of control and the T/C [6] was 167 % of control. The T/C (endpoint: mean survival time, dose: 400.0 mg/kg/injection, schedule: Q01DX001 (ip), vehicle: saline) was 198 % of control, the T/C (endpoint: mean survival time, dose: 800.0 mg/kg/injection, schedule: Q01DX001 (ip), vehicle: saline) was 206 % of control and the T/C (endpoint: median survival time, dose: 65.0 mg/kg/injection, schedule: Q01DX014 (ip), vehicle: water) was 215 % of control and 216 % of control. For the same molecule, the T/C (endpoint: median survival time, dose: 108.0 mg/kg/injection, schedule: Q01DX001 (ip), vehicle: water) was 118 % of control and 121 % of control, the T/C (endpoint: median survival time, dose: 180.0 mg/kg/injection, schedule: Q01DX001 (ip), vehicle: saline) was 172 % of control and 175 % of control and the T/C (endpoint: median survival time, dose: 180.0 mg/kg/injection, schedule: Q01DX009 (ip), vehicle: water) was 291 % of control. For the same molecule, the T/C (endpoint: median survival time, dose: 180.0 mg/kg/injection, schedule: Q01DX014 (ip), vehicle: water) was 105 % of control, the T/C (endpoint: median survival time, dose: 180.0 mg/kg/injection, schedule: Q07DX003 (ip), vehicle: water) was 289 % of control and the T/C (endpoint: median survival time, dose: 300.0 mg/kg/injection, schedule: Q01DX001 (ip), vehicle: saline) was 261 % of control and 266 % of control. The T/C (endpoint: median survival time, dose: 300.0 mg/kg/injection, schedule: Q01DX009 (ip), vehicle: water) was 187 % of control, the T/C (endpoint: median survival time, dose: 300.0 mg/kg/injection, schedule: Q01DX014 (ip), vehicle: water) was 76 % of control and the T/C (endpoint: median survival time, dose: 300.0 mg/kg/injection, schedule: Q07DX003 (ip), vehicle: water) was 168 % of control. For the same molecule, the T/C (endpoint: median survival time, dose: 400.0 mg/kg/injection, schedule: Q01DX001 (ip), vehicle: water) was 272 % of control and 297 % of control, the T/C (endpoint: median survival time, dose: 500.0 mg/kg/injection, schedule: Q01DX001 (ip), vehicle: saline) was 44 % of control and the T/C (endpoint: median survival time, dose: 500.0 mg/kg/injection, schedule: Q01DX009 (ip), vehicle: water) was 81 % of control. For the same molecule, the T/C (endpoint: median survival time, dose: 600.0 mg/kg/injection, schedule: Q01DX001 (ip), vehicle: water) was 227 % of control and 255 % of control, the T/C (endpoint: median survival time, dose: 700.0 mg/kg/injection, schedule: Q01DX001 (ip), vehicle: water) was 46 % of control and the T/C (endpoint: median survival time, dose: 800.0 mg/kg/injection, schedule: Q01DX001 (ip), vehicle: water) was 39 % of control. For the same molecule, the T/C (endpoint: median survival time, dose: 833.0 mg/kg/injection, schedule: Q01DX001 (ip), vehicle: saline) was 23 % of control, the T/C (endpoint: median survival time, dose: 833.0 mg/kg/injection, schedule: Q01DX009 (ip), vehicle: water) was 24 % of control and the T/C (endpoint: median survival time, dose: 900.0 mg/kg/injection, schedule: Q01DX001 (ip), vehicle: water) was 25 % of control.
For `CCCCCCCCCCC(CCCCCCC)(CCCCCCCC)CCCCCCCCC` (centres undefined), the T/C (endpoint: mean survival time, dose: 133.0 mg/kg/injection, schedule: Q01DX001 (ip), vehicle: saline with Tween-80) was 102 % of control, the T/C (endpoint: mean survival time, dose: 200.0 mg/kg/injection, schedule: Q01DX001 (ip), vehicle: saline with Tween-80) was 107 % of control and the T/C (endpoint: mean survival time, dose: 300.0 mg/kg/injection, schedule: Q01DX001 (ip), vehicle: saline with Tween-80) was 102 % of control. For the same molecule, the T/C (endpoint: mean survival time, dose: 400.0 mg/kg/injection, schedule: Q01DX001 (ip), vehicle: saline with Tween-80) was 101 % of control.
In the case of `O=C(O)CN1C(=O)C2CC=CCC2C1=O` (centres undefined), the T/C [5] is reported as 91 % of control, the T/C [3] is reported as 96 % of control and the T/C [6] is reported as 96 % of control. The T/C [7] was 93 % of control, the T/C (endpoint: mean survival time, dose: 400.0 mg/kg/injection, schedule: Q01DX009 (ip), vehicle: saline) was 86 % of control and the T/C [8] was 91 % of control.
`O=[N+]([O-])c1cccc2cccc([N+](=O)[O-])c12` was tested, and the T/C [5] was 91 % of control, the T/C [3] was 103 % of control and the T/C [6] was 86 % of control. The T/C [7] was 98 % of control and the T/C [8] was 101 % of control.
`CC(C)/[N+]([O-])=C/C=C/c1ccccc1` was tested, and the T/C (endpoint: mean survival time, dose: 100.0 mg/kg/injection, schedule: Q04DX003 (ip), vehicle: Klucel (hydroxypropylcellulose) (HPC)) was 96 % of control, the T/C (endpoint: mean survival time, dose: 200.0 mg/kg/injection, schedule: Q04DX003 (ip), vehicle: Klucel (hydroxypropylcellulose) (HPC)) was 97 % of control and the T/C (endpoint: mean survival time, dose: 400.0 mg/kg/injection, schedule: Q04DX003 (ip), vehicle: Klucel (hydroxypropylcellulose) (HPC)) was 100 % of control.
`CNc1c(C)cc(C)c(NC)c1C` was tested, and the T/C (endpoint: mean survival time, dose: 100.0 mg/kg/injection, schedule: Q04DX002 (ip), vehicle: saline with Tween-80) was 107 % of control.
